Data: paper PMC6143625, “A high throughput screen for next-generation leads targeting malaria parasite transmission” (Nature Communications, 2018)

Legend:
HepG2 human cells = system: HepG2 human cells; set-up: method as in http://dx.doi.org/10.6019/CHEMBL3507680; conditions: ref http://dx.doi.org/10.6019/CHEMBL3507680; cited from earlier work
[1] = system: P. falciparum 3D7 asexual blood stages; assay: Whole-cell time extended asexual growth assay (pLDH); assay type: cell-based; conditions: Plasmodium falciparum, 72 h; for IC50: dose response retest, read-out: IC50 (µM) Asex stages; for inhibition at 2 µM: primary screen, read-out: %Inh Asex stages @2uM
Method: Asexual activity was assayed via Plasmodium lactate dehydrogenase activity (pLDH), a surrogate of asexual parasite growth. […] 2 µM artesunate and DMSO were used as the positive and negative controls, respectively. […] After plate mixing, NBT reduction was measured by absorbance at 650 nm using Envision (Perkin Elmer).

SMILES: CCOCc1ccc(CNC2=NCCCN2)cc1.I [DDD01079448]
- %Inh HepG2 @10uM (HepG2 human cells): -2.49%
- IC50 [1]: 1.58 µM
- inhibition at 2 µM [1]: 40.1%

SMILES: Cc1ccc(CNC2CCN(CCc3ccncc3)CC2)cc1C [DDD01080013]
- %Inh HepG2 @10uM (HepG2 human cells): 1.32%
- IC50 [1]: 1.81 µM
- inhibition at 2 µM [1]: 77%

SMILES: COc1cccc(CN(C)C(=O)CN2CC(n3nc(C)cc3C)C2)c1 [DDD01080719]
- %Inh HepG2 @10uM (HepG2 human cells): -1.82%
- IC50 [1]: 2.29 µM
- inhibition at 2 µM [1]: 49.9%

SMILES: CCS(=O)(=O)N1CCC2(CC1)CN(CC1CCOC1)c1ccccc12.O=C(O)C(F)(F)F (stereo not drawn) [DDD01082339]
- %Inh HepG2 @10uM (HepG2 human cells): 25.95%
- IC50 [1]: 7.55 µM
- inhibition at 2 µM [1]: 46%

SMILES: O=C(O)C(F)(F)F.c1ccc(CN2CCC3(CC2)CC(Nc2nccs2)CO3)nc1 (stereo not drawn) [DDD01083119]
- %Inh HepG2 @10uM (HepG2 human cells): -8.19%
- IC50 [1]: 7.18 µM
- inhibition at 2 µM [1]: 37.5%

SMILES: CC(C)N(C)Cc1cnc2n1CCN(C(=O)NC1CCCC1)C2.O=C(O)C(F)(F)F [DDD01085014]
- %Inh HepG2 @10uM (HepG2 human cells): -9.47%
- IC50 [1]: 4.32 µM
- inhibition at 2 µM [1]: 42.5%

SMILES: O=C(NCCCN1CCOCC1)c1ccn(-c2ccc3ccccn23)n1.O=C(O)C(F)(F)F [DDD01085308]
- %Inh HepG2 @10uM (HepG2 human cells): 23.54%
- IC50 [1]: 2.53 µM
- inhibition at 2 µM [1]: 50.4%

SMILES: c1cc(-c2n[nH]cc2-c2ccnc(N3CCCC3)n2)ccn1 [DDD01235828]
- %Inh HepG2 @10uM (HepG2 human cells): -2.36%
- IC50 [1]: 0.201 µM
- inhibition at 2 µM [1]: 46.4%

SMILES: COc1ccc2[nH]cc(-c3ccnc(NC4CCCC4)n3)c2c1 [DDD01235847]
- %Inh HepG2 @10uM (HepG2 human cells): -0.78%
- IC50 [1]: 3.02 µM
- inhibition at 2 µM [1]: 33.7%

SMILES: CCCn1cc(-c2ccnc(NC3CCc4ccccc4C3)n2)c(C)n1 (stereo not drawn) [DDD01243522]
- %Inh HepG2 @10uM (HepG2 human cells): 19.33%
- IC50 [1]: 1.16 µM
- inhibition at 2 µM [1]: 31.2%

SMILES: COc1cccc(CN2CC(=O)N(c3ccccc3C)CC2C)c1OC (stereo not drawn) [DDD01244654]
- %Inh HepG2 @10uM (HepG2 human cells): -6.78%
- IC50 [1]: 3.87 µM
- inhibition at 2 µM [1]: 51.8%

SMILES: CNc1nc(C)cc(NCc2cc(C)cc3c(C)c(C)[nH]c23)n1 [DDD01244907]
- %Inh HepG2 @10uM (HepG2 human cells): 98.78%
- IC50 [1]: 1.3 µM
- inhibition at 2 µM [1]: 91.8%

SMILES: CC1CCCCN1C(=O)c1coc(COc2cccc3cnccc23)n1 (stereo not drawn) [DDD01245028]
- %Inh HepG2 @10uM (HepG2 human cells): -6.78%
- IC50 [1]: 1.56 µM
- inhibition at 2 µM [1]: 66.8%

SMILES: NCC1Cc2cc(-c3nccc(N4CCC(O)CC4)n3)cc(Cl)c2O1 (stereo not drawn) [DDD01245918]
- %Inh HepG2 @10uM (HepG2 human cells): 5.41%
- IC50 [1]: 4.85 µM
- inhibition at 2 µM [1]: 72.6%

SMILES: O=C(O)C1CC2(CCN(c3nccc4ccccc34)CC2)CN1 (stereo not drawn) [DDD01246093]
- %Inh HepG2 @10uM (HepG2 human cells): 9.49%
- IC50 [1]: 3.51 µM
- inhibition at 2 µM [1]: 35.8%

SMILES: CCn1cc(CN2CCN(Cc3cc(C)cc(C)c3)C(=O)C2)cc1C#N [DDD01246382]
- %Inh HepG2 @10uM (HepG2 human cells): 15.63%
- IC50 [1]: 3.31 µM
- inhibition at 2 µM [1]: 37.3%

SMILES: CCCn1ncc(-c2ccnc(NC3CC(C)(C)NC(C)(C)C3)n2)c1C [DDD01246448]
- %Inh HepG2 @10uM (HepG2 human cells): 80.08%
- IC50 [1]: 4.53 µM
- inhibition at 2 µM [1]: 41.5%

SMILES: CC1(c2ccccc2)CCCN(Cc2cncn2C2CCCC2)C1 (stereo not drawn) [DDD01246491]
- %Inh HepG2 @10uM (HepG2 human cells): -13.60%
- IC50 [1]: 2.95 µM
- inhibition at 2 µM [1]: 39.7%

SMILES: COc1ccnc(CN2CCCC(CCc3ccc(F)cc3)C2)c1OC (stereo not drawn) [DDD01246654]
- %Inh HepG2 @10uM (HepG2 human cells): 2.04%
- IC50 [1]: 2.25 µM
- inhibition at 2 µM [1]: 51%

SMILES: Cc1ccc2[nH]c(-c3cn(C4CCNCC4)nn3)nc2c1C [DDD01246711]
- %Inh HepG2 @10uM (HepG2 human cells): -3.44%
- IC50 [1]: 2.13 µM
- inhibition at 2 µM [1]: 63.9%

SMILES: CCN1CCN(C[C@@H]2CN(c3ncc(Cl)cc3F)C[C@@H]2CO)CC1 [DDD01246828]
- %Inh HepG2 @10uM (HepG2 human cells): -10.90%
- IC50 [1]: 1.4 µM
- inhibition at 2 µM [1]: 82.5%

SMILES: N#Cc1cccc(N2CCCC(CO)(CCOc3ccccc3)C2)n1 (stereo not drawn) [DDD01247086]
- %Inh HepG2 @10uM (HepG2 human cells): 8.55%
- IC50 [1]: 8.09 µM
- inhibition at 2 µM [1]: 32%

SMILES: CC(C)CN1CCCC1c1ccc(C(=O)Nc2cccnc2)s1 (stereo not drawn) [DDD01247321]
- %Inh HepG2 @10uM (HepG2 human cells): 0.07%
- IC50 [1]: 3.35 µM
- inhibition at 2 µM [1]: 34.5%

SMILES: CCn1cc(CN2CCN(Cc3cccc(OC)c3)C(=O)C2)cc1C#N [DDD01247460]
- %Inh HepG2 @10uM (HepG2 human cells): -1.17%
- IC50 [1]: 1.46 µM
- inhibition at 2 µM [1]: 76.2%

SMILES: COc1ccccc1OCCCc1cccc(C#N)n1 [DDD01247630]
- %Inh HepG2 @10uM (HepG2 human cells): -1.85%
- IC50 [1]: 6.32 µM
- inhibition at 2 µM [1]: 36%

SMILES: COc1cccc(CN(C)Cc2[nH]c3ccccc3c2C)c1O [DDD01247848]
- %Inh HepG2 @10uM (HepG2 human cells): 1.38%
- IC50 [1]: 1.91 µM
- inhibition at 2 µM [1]: 91.2%

SMILES: CNc1cc(C)nc(NCc2cc(C)cc3c(C)c(C)[nH]c23)n1 [DDD01248198]
- %Inh HepG2 @10uM (HepG2 human cells): 67.15%
- IC50 [1]: 1.79 µM
- inhibition at 2 µM [1]: 69.2%

SMILES: CC(C)c1cc(CN(C)C(=O)C(C)N2CCc3ccccc3C2)no1 (stereo not drawn) [DDD01248554]
- %Inh HepG2 @10uM (HepG2 human cells): 34.35%
- IC50 [1]: 9.68 µM
- inhibition at 2 µM [1]: 36%
